Test results from article PMC12775434, “Ultra-large virtual screening unveils potent agonists of the neuromodulatory orphan receptor GPR139” (Nature Communications, 2025).
“And” between values parts separate entries of the source, which are not always exact repeats. Identical values can stand only once.

Columns and labels:
GPR139 [1] = molecular target: T1, GPR139 (Homo sapiens, UniProt Q6DWJ6); assay: Ca2+ mobilization assay, agonist mode, stable GPR139-CHOk1 cell line; format: cell-based
T1 sequence (Q6DWJ6 1-353): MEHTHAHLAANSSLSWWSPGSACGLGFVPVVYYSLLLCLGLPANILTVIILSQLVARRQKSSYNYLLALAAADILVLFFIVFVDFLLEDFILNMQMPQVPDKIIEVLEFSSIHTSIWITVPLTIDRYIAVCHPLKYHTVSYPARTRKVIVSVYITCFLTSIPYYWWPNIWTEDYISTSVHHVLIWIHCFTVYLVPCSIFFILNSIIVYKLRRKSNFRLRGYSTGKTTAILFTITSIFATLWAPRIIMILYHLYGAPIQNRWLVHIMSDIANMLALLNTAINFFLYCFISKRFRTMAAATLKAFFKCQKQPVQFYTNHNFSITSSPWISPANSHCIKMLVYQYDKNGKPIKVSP
Description: Primary screening and pharmacological characterization of compounds were performed using a CHO-K1 cell line that stably expresses human GPR139 (GPR139-CHOk1). The GPR139-CHOk1 cell line was kindly provided by H. Lundbeck A/S, Denmark[24]. GPR139-CHOk1 cells were grown in Ham’s F-12 Kaighn’s Modification Medium (ThermoFisher #21127030) supplemented with 10% dialyzed fetal bovine serum (US origin, ThermoFisher #26400044), 100 units/mL Penicillin-Streptomycin (ThermoFisher #15140122), and 1 mg/mL Geneticin (ThermoFisher #11811031). […] M1R-CHOk1 cells were purchased from The Missouri S&T cDNA Resource Center (#CEM100TN00). M1R-CHOk1 cells were grown in Ham’s F12 Medium (ThermoFisher #21765029) supplemented with 10% fetal bovine serum (Brazilian origin, ThermoFisher #10270106), 100 units/mL Penicillin-Streptomycin, and 0.25 mg/mL Geneticin. HEK293A cells transiently transfected with GPR139 were used for additional pharmacological assessment of signaling pathways activated by GPR139. HEK239A cells were generously provided by Dr. Asuka Inoue, Tohoku University, Japan. HEK293A cells were grown in Dulbecco’s Modified Eagle Medium (ThermoFisher #31966047) supplemented with 10% dialyzed fetal bovine serum and 100 units/mL Penicillin-Streptomycin. Cell lines were maintained at 37 °C in humidified incubator equilibrated with 5% CO2.
(§1) 30,000 GPR139- or M1R-CHOk1 cells/well were seeded in black clear bottom tissue culture treated 96-well plates (Greiner #655090) and grown for 20–24 h. Cells were washed with HEPES buffer (Hank’s Balanced Salt Solution (HBBS) supplemented with 20 mM HEPES, 1 mM MgCl2, and 1 mM CaCl2; pH 7.4). Cells were loaded with 50 µL of 2 µM Fluo-4 AM dye (ThermoFisher #F14202) in HEPES buffer supplemented with 2.5 mM probenecid and 0.01% Pluronic F-68 (ThermoFisher #24040032) for 1 h at 37 °C. Cells were washed with HEPES buffer. 50 µL HEPES buffer supplemented with 2.5 mM probenecid was added, and the cells were incubated for 10 min at 37 °C before measurement. 50 µL test compounds diluted in HEPES buffer from DMSO stocks (final DMSO concentration of maximally 0.3%) were added automatically after baseline measurements. The intracellular calcium mobilization was measured on a FlexStation 3 Multimode Microplate Reader (Molecular Devices) at 37 °C with filters for excitation of 485 nm and emission of 525 nm.
(§2) Our primary compound screening protocol consisted of two subsequent steps that allowed to screen for agonists and antagonists simultaneously. In the first step, the screening compounds were applied at 10 µM to test for agonist activity (agonist mode). Following 20 min incubation with the compounds added in the first step, in the second step, an EC80 concentration (800 nM) of the reference agonist Lundbeck Cmp 1a was applied to test for antagonist activity (antagonist mode).
Pharmacological data and statistical analyses were performed in GraphPad Prism v9–10 (Graphpad Software Inc., San Diego, CA), which are also specifically described in the figure and table legends. The functional assay responses were normalized to buffer (0%) and Lundbeck Cmp 1a or JNJ-63533054 (100%), for Ca^2+ and IP1 experiments in the GPR139-CHOk1 stable cell line or Ca^2+, G protein activation, and arrestin-3 recruitment experiments in the HEK293A cells transiently transfected with GPR139, respectively. Data are from at least three independent experiments, unless stated otherwise. Concentration-response curves were fitted applying non-linear regression using the log (agonist) versus response model with variable slope. ANOVA was applied for comparing results and determining statistical significance.

GPR139 [2] = molecular target: T1, GPR139; assay: Ca2+ mobilization assay, antagonist mode (EC80 800 nM Lundbeck Cmp 1a after 20 min preincubation), GPR139-CHOk1; format: cell-based
Description: as §1
as §2, with “(antagonist mode). In the agonist mode (first step) response is seen only with compounds having agonist activity (Cmp 1a), but not with non-receptor-binding compounds (Vehicle) or antagonists (NCRW0105-E06) (Supplementary Fig. 14). […] No antagonist compounds were identified in this study.” for “(antagonist mode).”

[3] = Agonist mode, individual replicates (Supplementary Figure 4)
[4] = individual replicates (Supplementary Figure 4)
[5] = Agonist mode, individual replicates (Supplementary Figure 1)
[6] = individual replicates (Supplementary Figure 1)

Compound | Ca2+ signal (% of Cmp 1a) (GPR139 [1]; [5]) | Ca2+ signal (% of Cmp 1a) (GPR139 [2]; [6]) | also measured
COc1ccc2cc(-c3nc(CC(=O)NC(C)c4ccccc4)no3)sc2c1 (centres unmarked) [Compound 1.36, COC1=CC2=C(C=C(C3=NC(CC(NC(C4=CC=CC=C4)C)=O)=NO3)S2)C=C1] | – | – | activation of GPR139 in analog screen (GPR139 [1]; 10 µM): All analogs, with the exception of compound 1.36, activated GPR139; Ca2+ signal (% of Cmp 1a) (GPR139 [1]; [3]): 0 % of Cmp 1a and -15 % of Cmp 1a and -10 % of Cmp 1a; change in potency with larger substituents on the thiophene ring (GPR139 [1]; Ca2+ mobilization): three-fold reduction to a complete loss of activity; Ca2+ signal (% of Cmp 1a) (GPR139 [2]; [4]): 52 % of Cmp 1a and 69 % of Cmp 1a and 54 % of Cmp 1a
COc1ccc(OCc2nc(CC(=O)NC(C)c3ccccc3)no2)cc1 (centres unmarked) [Compound 1.37, COC1=CC=C(OCC2=NC(CC(NC(C3=CC=CC=C3)C)=O)=NO2)C=C1] | – | – | Ca2+ signal (% of Cmp 1a) (GPR139 [1]; [3]): 65 % of Cmp 1a and 55 % of Cmp 1a and 21 % of Cmp 1a; Ca2+ signal (% of Cmp 1a) (GPR139 [2]; [4]): 36 % of Cmp 1a and 40 % of Cmp 1a and 37 % of Cmp 1a
CC(NC(=O)Cc1coc(-c2cccs2)n1)c1ccccc1 (centres unmarked) [Compound 1.44, CC(NC(=O)CC1=COC(=N1)C2=CC=CS2)C=3C=CC=CC3] | – | – | calcium mobilization response relative to Lundbeck Cmp 1a (GPR139 [1]; 10 µM compound, agonist mode): 43%; Ca2+ signal (% of Cmp 1a) (GPR139 [1]; [3]): 88 % of Cmp 1a and 15 % of Cmp 1a and 25 % of Cmp 1a; fold decrease in potency on substitution of the central oxadiazole ring (GPR139 [1]; Ca2+ mobilization): > 50 fold; EC50 (GPR139 [1]; GPR139-CHOk1, read-out: EC50, Ca2+ mobilization): > 10 µM; Ca2+ signal (% of Cmp 1a) (GPR139 [2]; [4]): -8 % of Cmp 1a and 68 % of Cmp 1a and 69 % of Cmp 1a
Cc1nn(C)c2nc(C(=O)N[C@@H](C)c3ccccc3)ccc12 [Compound 15, C[C@H](NC(=O)C=1C=CC=2C(C)=NN(C)C2N1)C=3C=CC=CC3] | -11 % of Cmp 1a and 0.224 % of Cmp 1a and 7.56 % of Cmp 1a | 88.3523 % of Cmp 1a and 83.7132 % of Cmp 1a and 99.0735 % of Cmp 1a | –
C[C@H](NC(=O)c1ccc(=O)n(-c2ccc(F)cc2)n1)c1ccccc1 [Compound 16, C[C@H](NC(=O)C=1C=CC(=O)N(N1)C=2C=CC(F)=CC2)C=3C=CC=CC3] | -6 % of Cmp 1a and 42 % of Cmp 1a and 24 % of Cmp 1a | 74.1067 % of Cmp 1a and 36.0111 % of Cmp 1a and 92.3974 % of Cmp 1a | –
Cc1nnnn1C(=Cc1ccccc1)C(=O)N[C@@H](C)c1ccccc1 [Compound 17, C[C@H](NC(=O)C(=CC=1C=CC=CC1)N2N=NN=C2C)C=3C=CC=CC3] | 4.36 % of Cmp 1a and -2.84 % of Cmp 1a and 2.54 % of Cmp 1a | 61.7351 % of Cmp 1a and 85.7644 % of Cmp 1a and 78.6356 % of Cmp 1a | –
C[C@H](NC(=O)c1cn2cccnc2n1)c1ccccc1 [Compound 18, C[C@H](NC(=O)C1=CN2C=CC=NC2=N1)C=3C=CC=CC3] | 2.28 % of Cmp 1a and 13 % of Cmp 1a and 21 % of Cmp 1a | 80.6397 % of Cmp 1a and 68.0976 % of Cmp 1a and 80.5455 % of Cmp 1a | –
CC(O)CN(Cc1ccccc1)C(=O)NCc1ccc(Cl)o1 (centres unmarked) [Compound 19, CC(O)CN(CC=1C=CC=CC1)C(=O)NCC2=CC=C(Cl)O2] | 4 % of Cmp 1a and 5 % of Cmp 1a and 6.65 % of Cmp 1a | 78.3598 % of Cmp 1a and 79.4126 % of Cmp 1a and 77.319 % of Cmp 1a | Ca2+ signal (% of Cmp 1a) (GPR139 [1]; primary screen, 10 µM compound, agonist mode, three columns = independent experiments): 4 % of Cmp 1a and 5 % of Cmp 1a and 6.65 % of Cmp 1a
CC(C)(NC(=O)Nc1ccccc1)C(=O)Nc1cnc2ccccc2c1 [Compound 20, CC(C)(NC(=O)NC=1C=CC=CC1)C(=O)NC=2C=NC=3C=CC=CC3C2] | 2.84 % of Cmp 1a and -2.82 % of Cmp 1a and 13 % of Cmp 1a | 73.2682 % of Cmp 1a and 77.4411 % of Cmp 1a and 81.0233 % of Cmp 1a | –
Cc1ccc(OCC(=O)Nc2ccc3c(c2)nc(C)n3C)cc1 [Compound 21, CC1=NC=2C=C(NC(=O)COC=3C=CC(C)=CC3)C=CC2N1C] | 1.09 % of Cmp 1a and -7 % of Cmp 1a and -8 % of Cmp 1a | 67.0268 % of Cmp 1a and 92.847 % of Cmp 1a and 77.1923 % of Cmp 1a | –
CC(CC(=O)N(CC(=O)N1CCCC1)CC1CCCO1)n1cccc1 (centres unmarked) [Compound 22, CC(CC(=O)N(CC1CCCO1)CC(=O)N2CCCC2)N3C=CC=C3] | 10 % of Cmp 1a and -5.34 % of Cmp 1a and 0.0706 % of Cmp 1a | 90.9616 % of Cmp 1a and 92.7534 % of Cmp 1a and 72.9128 % of Cmp 1a | –
Cc1sc2ncn(NC(=O)c3csc4cncn34)c(=O)c2c1C [Compound 23, CC=1SC=2N=CN(NC(=O)C3=CSC4=CN=CN34)C(=O)C2C1C] | -1 % of Cmp 1a and 11 % of Cmp 1a and -1.45 % of Cmp 1a | 92.3647 % of Cmp 1a and 68.6585 % of Cmp 1a and 94.6907 % of Cmp 1a | –
O=C(Cn1ccnc1)Nc1cccc(N2C(=O)c3ccccc3C2=O)c1 [Compound 24, O=C(CN1C=CN=C1)NC=2C=CC=C(C2)N3C(=O)C=4C=CC=CC4C3=O] | -4 % of Cmp 1a and 3 % of Cmp 1a and -9 % of Cmp 1a | 76.1398 % of Cmp 1a and 60.9703 % of Cmp 1a and 76.3719 % of Cmp 1a | –
CN(Cc1nnc[nH]1)c1nc(-c2cc(Cl)cc(Cl)c2)no1 [Compound 25, CN(CC1=NN=CN1)C2=NC(=NO2)C=3C=C(Cl)C=C(Cl)C3] | 4.25 % of Cmp 1a and 1 % of Cmp 1a and 14 % of Cmp 1a | 70.9298 % of Cmp 1a and 72.5727 % of Cmp 1a and 87.7637 % of Cmp 1a | –
C[C@H](NC(=O)C1(OCc2ccccc2)CCOCC1)c1ccccc1 [Compound 26, C[C@H](NC(=O)C1(CCOCC1)OCC=2C=CC=CC2)C=3C=CC=CC3] | 2.84 % of Cmp 1a and -5 % of Cmp 1a and 4.48 % of Cmp 1a | 89.3069 % of Cmp 1a and 86.2472 % of Cmp 1a and 83.3433 % of Cmp 1a | –
Cc1cccc(-c2nc(C(=O)N3CCc4ncccc43)c(C)[nH]2)c1 [Compound 27, CC=1NC(=NC1C(=O)N2CCC=3N=CC=CC23)C=4C=CC=C(C)C4] | -4.28 % of Cmp 1a and 11 % of Cmp 1a and 2.44 % of Cmp 1a | 81.7236 % of Cmp 1a and 71.1235 % of Cmp 1a and 80.4014 % of Cmp 1a | –
O=C(NCC1CC=CCC1)Nc1cnn(-c2cnc3ccccc3n2)c1 (centres unmarked) [Compound 28, O=C(NCC1CCC=CC1)NC=2C=NN(C2)C=3C=NC=4C=CC=CC4N3] | -7.43 % of Cmp 1a and 8 % of Cmp 1a and 9 % of Cmp 1a | 78.5136 % of Cmp 1a and 66.4897 % of Cmp 1a and 98.5524 % of Cmp 1a | –
CCc1ocnc1C(=O)Nc1cccc(C(=O)NCc2ccccc2)c1 [Compound 29, CCC=1OC=NC1C(=O)NC=2C=CC=C(C2)C(=O)NCC=3C=CC=CC3] | -4.43 % of Cmp 1a and 1.9 % of Cmp 1a and 8 % of Cmp 1a | 59.2373 % of Cmp 1a and 59.0417 % of Cmp 1a and 94.2662 % of Cmp 1a | –
Cn1c(SCC(=O)Nc2c(F)cccc2F)nc2ccccc21 [Compound 30, CN1C(SCC(=O)NC=2C(F)=CC=CC2F)=NC=3C=CC=CC13] | -6.62 % of Cmp 1a and 1.6 % of Cmp 1a and 14 % of Cmp 1a | 67.1888 % of Cmp 1a and 62.1843 % of Cmp 1a and 60.1781 % of Cmp 1a | –
